# Measurements reported in patent publication US20070274947A1, “Antisense Oligonucleotides Directed to Ribonucleotide Reductase R1 and Uses Thereof in the Treatment of Cancer” (priority 2003, published 2007).
# “Also recorded” adds a separate entry of the source.
# Assays:
# [1] = tested on: Caki-1 human kidney cancer cells; assay: Caki-1 renal tumor growth in SCID/beige mice; assay type: in vivo; details: SCID/beige mice (NK, T and B cell deficient); 10 mg/kg/2 days i.v.; 32 days
# Experimental: To address whether SEQ ID NO:1 anti-tumor activity is NK mediated, tumor xenograft growth was assessed in SCID/beige mice that are NK, T and B cell deficient. Caki-1 human kidney cancer cells (5×10^6 cells in 100 μl of PBS) were subcutaneously injected into the right flank of 6-7 weeks old female SCID/beige mice. After the size of tumor reached an approximate volume of 100 mm^3, 7 days post tumor cell injection, SEQ ID NO:1 and SEQ ID NO:1-SCR were administered (10 mg/kg/2 days, i.v.). Control animals received saline alone for the same period. Caliper measurements at 1 week intervals were used to calculate tumor volumes. Each point in FIG. 3 (top) represents mean tumor volume calculated from 10 animals per experimental group. After 32 days the mice were sacrificed and the tumors weighed. Each bar in FIG. 3 (bottom) represents the mean tumor weight and standard error calculated for each treatment group.
# [2] = cynomolgus monkey, in vivo
# [3] = monkey, in vivo
# R1 protein = assay: Western blot of R1 protein in MDA-MB-231 cells; assay type: cell-based, human; details: SEQ ID NO:1 0.025-0.2 μM, controls 0.2 μM
# Experimental: MDA-MB-231 human breast adenocarcinoma cells were treated with increasing concentrations (0.025-0.2 μM) of SEQ ID NO:1, 0.2 μM of a scrambled control analogue of SEQ ID NO:1 (SEQ ID NO:1 Scr) or a mismatched control analogue of SEQ ID NO:1 (SEQ ID NO:1 Mis) that contains four base changes. Cells were then washed and fresh media were added. Cells were harvested 8-18 hours later for protein extractions. Aliquots of cell extracts were heated at 100° C. for 5 minutes and then analyzed on sodium dodecyl sulfate-polyacrylamide gels (Choy et al., 1988). Proteins were then transferred to membranes. Membranes were blocked and then incubated with anti-R1 antibody for 1 hour at room temperature. Membranes were washed three times in cold TBS-Tween buffer followed by incubation for 30 minutes to 1 hour at room temperature in the presence of a second antibody (goat anti-rabbit immunoglobulin linked with horseradish peroxidase). Blots were washed and bound antibodies were detected by development of the […] reaction (Fan et al., 1996).
# R1 mRNA = assay: Northern blot of R1 mRNA in MDA-MB-231 cells; assay type: cell-based, human; details: 0.2 μM, four hours with Lipofectin, 16 hours recovery
# Experimental: Total RNA was isolated using TRIzol reagent (GIBCO BRL) after cells were treated with 0.2 μM SEQ ID NO:1 for four hours in the presence of cationic lipid (Lipofectin reagent, GIBCO BRL), washed with PBS, and incubated for 16 hours to recover in normal medium containing 10% FBS. Northern blot analysis was performed as previously described (Hurta and Wright, 1995). RNA was subjected to electrophoresis through 1% formaldehyde agarose gels followed by transfer to nylon membranes. Blots were hybridized in the presence of a R1 fragment (McClarty et al, 1987). Glyceraldehyde-3-phosphate dehydrogenase (GAPDH) mRNA levels were simultaneously probed for RNA loading controls.
# [4] = Toxicokinetics in repeat dose (14-day and 21-day) continuous infusion studies in monkeys; details: monkey
# [5] = rat, in vivo
# [6] = tested on: human Burkitt's lymphoma (Raji) cells; assay: Survival of SCID mice bearing human Burkitt's lymphoma (Raji); assay type: in vivo
# Experimental: In vivo studies were conducted to assess the therapeutic potential of SEQ ID NO:1 in the treatment of lymphoma. Viable human Burkitt's lymphoma (Raji) cells (5×10^6) collected from subconfluent logarithmically growing cultures were injected i.v. via the tail vein of each animal and disease was allowed to establish for 2 days. SEQ ID NO:1 in normal saline was administered by tail vein injections every second day at a dose of 10 mg/kg. Control animals received saline alone, without oligonucleotide. Treatment with SEQ ID NO:1 was stopped at day 42. The mice in both groups (n−10) were sacrificed at, day 73. Antitumor effects of SEQ ID NO:1 treatment were assessed by the examination of survival of mice (FIG. 18A). All mice died as a consequence of tumor progression within 23 days when left untreated. All SEQ ID NO:1 treated animals, on the other hand, survived beyond day 73 except one mouse which died at day 35. In an independent experiment, mice survived 140 days, even when treatment was stopped at day 70 (FIG. 18B). This experiment also included treatment with a control oligonucleotide, SEQ ID NO:1-SCR (scrambled version of SEQ ID NO:1). The saline and control ODN mice all died from disease progression by day 27. At day 40, the SEQ ID NO:1-treated mice continued treatment every three days until stopping the treatment at day 59. All mice survived to the end of the experimental period.
# H460 (lung) = assay: Colony forming ability, H460; assay type: cell-based, human; details: 0.2 μM antisense oligonucleotide/lipofectin, 4 hours
# Experimental: (§1) The effect of SEQ ID NO:1 on the colony forming ability were evaluated in the following human tumor cell lines:
# (§2) Tumor cells were washed in 5 ml of phosphate buffered saline, pH 7.2, prior to 0.2 μM antisense oligonucleotide/lipofectin treatment for 4 hours. The medium was removed and the cells were gently washed with 5 ml of growth medium. The cells were then cultured in growth medium for seven to ten days. Surviving colonies were visualized by methylene blue staining and colonies of 50 or more cells were scored (Choy et al., 1988 and Huang and Wright, 1994). Results are summarized from 4 to 8 trials for each tumor cell line.
# SK-OV-3 (ovary) = assay: Colony forming ability, SK-OV-3; assay type: cell-based, human; details: 0.2 μM antisense oligonucleotide/lipofectin, 4 hours
# Experimental: as §1, §2
substance,measurement,setting,value
5′-CTCTAGCGTCTTAAAGCCGA-3′ (CTCTAGCGTCTTAAAGCCGA; chemistry not given here) [SEQ ID NO:1],tumor volume and tumor weight,[1],highly effective
same,APTT values compared to control,[2],significantly longer
same,WBC counts,[2],marked increase
same,appetite,[2],significant decrease in appetite noted in the majority of high dose males
same,clinical signs,[2],Treatment-related reversible clinical signs were limited to a few high dose animals
same,lymphoid atrophy,[2],minimal to moderate lymphoid atrophy
same,ophthalmoscopy,[2],Bilateral retinopathy was noted in one high dose male
same,organ weights,[2],slight increase in relative and absolute kidney weights
same,"red blood cell, hematocrit, and hemoglobin values",[2],slight to moderate reductions
same,summary of effects,[2]; 50 mg/kg/day,"reversible signs of weakness, decreases in body weight and appetite, prolongation of APTT, anemia, thrombocytopenia, and monocytosis"
same,levels in the brain,[3],very low or below the limits of detection
same,"tissue concentrations, rank order",[3],kidney>liver>spleen>lymph node (monkey)>lung (monkey)>heart
same,tissue levels upon discontinuation of treatment,[3],decreased over time
same,R1 protein expression,R1 protein,specifically decreases R1 protein expression in a dose-dependent manner; also recorded: decreased R1 protein expression in a dose-dependent manner
same,R1 mRNA level,R1 mRNA,specifically decreases R1 mRNA; also recorded: significant decrease; also recorded: decreased R1 mRNA levels
same,AUC estimates versus duration and dose,[4]; Part 1 and Part 2 Recovery animals,proportional with the duration of infusion and the administered dose level
same,sex differences in toxicokinetic profile,[4]; Parts 1 and 2,no apparent sex-differences
same,elimination from plasma (profile),[5],biphasic
same,measurable in plasma post dose,[5],up to 24 h
same,plasma levels (AUC and Cmax) versus dose,[5],increased in proportion to administered dose
same,time of Cmax / maximum concentration post dose,[5]; iv,5 min
same,apparent terminal elimination phase t1/2,"[5]; iv, 50 mg/kg",4.72 to 5.80 h
same,plasma clearance,"[5]; iv, 50 mg/kg",49.67-43.30 mL/kg·h
same,survival of mice,"[6]; FIG. 18A, 10 mg/kg i.v. every second day, stopped at day 42, one mouse died at day 35, untreated died within 23 days",> 73 days
same,survival of mice,"[6]; independent experiment FIG. 18B, saline mice died by day 27",≥ 140 days
same,inhibition in colony forming ability,H460 (lung),greater than 60%
same,inhibition in colony forming ability,SK-OV-3 (ovary),greater than 60%
